Assay results published in PubChem BioAssay (NCI).
Where “and” joins values, the source holds several entries; their conditions need not be identical. Equal entries are not always repeated.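 Following 48 hours of exposure in 96-well plates, responses at five concentrations were used to interpolate endpoints linearly. At the GI50, growth is halved. The concentration for full growth arrest is given as TGI.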

Columns and labels:
Assay in all cases: inhibition of tumour cell growth, NCI panel, 48 h
UACC-257 melanoma = system: UACC-257 melanoma
U251 CNS = system: U251 CNS
NCI-H23 lung = system: NCI-H23 lung
SF-539 CNS = system: SF-539 CNS
NCI-H226 lung = system: NCI-H226 lung
TK-10 renal = system: TK-10 renal
SK-MEL-28 melanoma = system: SK-MEL-28 melanoma
SK-OV-3 ovarian = system: SK-OV-3 ovarian
LOX IMVI melanoma = system: LOX IMVI melanoma
OVCAR-3 ovarian = system: OVCAR-3 ovarian

Row | SMILES | GI50 (UACC-257 melanoma) | TGI (UACC-257 melanoma) | GI50 (U251 CNS) | TGI (U251 CNS) | GI50 (NCI-H23 lung) | TGI (NCI-H23 lung) | GI50 (SF-539 CNS) | TGI (SF-539 CNS) | GI50 (NCI-H226 lung) | TGI (NCI-H226 lung) | GI50 (TK-10 renal) | TGI (TK-10 renal) | GI50 (SK-MEL-28 melanoma) | TGI (SK-MEL-28 melanoma) | GI50 (SK-OV-3 ovarian) | TGI (SK-OV-3 ovarian) | GI50 (LOX IMVI melanoma) | TGI (LOX IMVI melanoma) | GI50 (OVCAR-3 ovarian) | TGI (OVCAR-3 ovarian)
1 | Cn1cc(-c2ccc3c(c2)ncn3-c2ccc(CC(=O)Nc3cc(C(C)(C)C)on3)cc2)cn1 | 3.18 µM | 53.7 µM | 2.93 µM | > 42.7 µM | 1.88 µM | 17.2 µM | 0.175 µM | 1.74 µM | 0.173 µM | 3.27 µM | 0.671 µM | 3.17 µM | 2.65 µM | > 100 µM | 1.01 µM | 4.33 µM | 0.732 µM | 4.87 µM | 2.06 µM | > 39.8 µM
2 | C/C(=N\NC(=S)Nc1ccccc1)c1ccccn1 | 0.032 µM | 0.384 µM | 0.0366 µM | 2.39 µM | 0.0191 µM | 5.22 µM | 0.581 µM | 7.24 µM | 0.217 µM | 2.13 µM | 1.02 µM | 3.77 µM | 1.68 µM | 4.94 µM | 0.51 µM | 2.22 µM | 0.0395 µM | 2.04 µM | < 0.01 µM | 0.0538 µM
3 | COc1ccc(C2=NN(c3ccc(S(N)(=O)=O)cc3)C(c3ccc(Cl)cc3)C2)c(O)c1 (stereo not drawn) | 6.84 µM | 42 µM | 4.47 µM | 21.2 µM | 3.32 µM | 13.7 µM | 10.1 µM | 22.3 µM | 5.6 µM | 19.3 µM | 2.49 µM | 9.02 µM | 5.06 µM | 18.1 µM | 8.23 µM | 56 µM | 4.83 µM | 17 µM | 2.6 µM | 7.45 µM
4 | O=c1[nH]cnc2c1nnn2C1C=C(CO)C(O)C1O (stereo not drawn) |  | > 100 µM |  | > 100 µM |  | > 100 µM |  | > 100 µM |  | > 100 µM |  | > 100 µM |  | > 100 µM |  | > 100 µM |  | 81.5 µM |  | > 100 µM
5 | CN(C)CC1CCCC(CN(C)C)C1=O (stereo not drawn) |  | 4.49 µM and 5.8 µM |  | 23 µM and 34.6 µM | 5.35 µM and 20.7 µM | 18.5 µM and 43.4 µM | 11.3 µM and 1.75 µM | 21.9 µM and 5.78 µM | 18.6 µM and > 46.5 µM | 35.6 µM and > 69.2 µM | 2.81 µM and 0.861 µM | 7.88 µM and 2.63 µM | 2.17 µM and 18.3 µM | 5.21 µM and 33.8 µM | 17.8 µM and > 44 µM | 31.8 µM and > 58.3 µM | 3.4 µM and 8.45 µM | 7.09 µM and 30.3 µM |  | 5.47 µM and 3.64 µM
6 | COc1ccc(C(=O)Nc2ccccc2C#N)cc1 |  | > 100 µM |  | > 100 µM |  | > 100 µM |  | > 100 µM |  |  |  | > 100 µM |  | > 100 µM |  |  |  | > 100 µM |  | > 100 µM
7 | O=C1/C(=C/c2ccccc2Cl)COc2ccccc21 |  | 34.9 µM |  | 26.9 µM |  | 36 µM |  | 31 µM |  |  |  | 27.1 µM |  | 30.1 µM |  | 72.5 µM |  | 35.8 µM |  | 34.8 µM
8 | C=C(CNCCc1ccc(O)cc1)[C@@H]1CC[C@]2(CO)CC[C@]3(C)[C@H](CC[C@@H]4[C@@]5(C)CCC(NCCO)C(C)(C)[C@@H]5CC[C@]43C)[C@@H]12 (stereo partly drawn) | 1.86 µM | 3.27 µM | 1.06 µM | 2.24 µM | 1.78 µM | 3.49 µM | 1.5 µM | 2.87 µM | 2 µM | 4.31 µM | 1.7 µM | 3.14 µM | 1.81 µM | 3.38 µM | 1.85 µM | 3.52 µM | 1.39 µM | 2.88 µM | 1.73 µM | 3.51 µM
9 | O=C(NCCS(=O)(=O)N1C(=O)C2CCCN2C(=O)[C@@H]1Cc1ccccc1)OCc1ccccc1 (stereo partly drawn) |  | > 100 µM |  | > 100 µM |  | > 100 µM |  | > 100 µM |  | > 100 µM |  | > 100 µM |  | > 100 µM |  | > 100 µM |  | > 100 µM |  | 70.2 µM
10 | O=[N+]([O-])c1ccc([I+]c2ccccc2)cc1 | 1.6 µM | 13.9 µM and 4.42 µM | 1.71 µM | 10.9 µM and 3.43 µM | 1.23 µM | 5.98 µM and 2.74 µM | 1.77 µM | 14.3 µM and 3.47 µM | 1.45 µM | 19.1 µM and 3.2 µM | 3.61 µM | 26.9 µM and 15.5 µM | 1.92 µM | 10.1 µM and 4.57 µM | 1.73 µM | 3.6 µM and 3.24 µM | 0.583 µM | 1.99 µM | 1.8 µM | 12.2 µM and 3.39 µM
11 | CCN1C(=O)N(CC)C2C1NN=c1s/c(=C\c3ccc([N+](=O)[O-])cc3)c(=O)n12 (stereo not drawn) | 1.17 µM | 70 µM | 0.506 µM | > 100 µM | 1.11 µM | > 100 µM | 0.338 µM | 2.83 µM | 2.16 µM | > 71 µM | > 35.4 µM | > 100 µM | 1.93 µM | > 100 µM | 0.698 µM | 49.5 µM | 0.507 µM | > 100 µM | 0.283 µM | 0.842 µM
12 | Cc1ccc2c(c1)/C(=N\N=C/c1cn(C(C)C)c3ccccc13)C(=O)N2 | 5.05 µM | > 100 µM | 3.9 µM | > 100 µM | 4.56 µM | > 100 µM | 2.9 µM | > 100 µM | 2.67 µM | > 100 µM | 15 µM | > 100 µM | 21.9 µM | > 100 µM | > 100 µM | > 100 µM | 2.55 µM | 25.2 µM | 0.311 µM | 31.9 µM
13 | O=C(O)Cc1ccccc1 | > 1000 µM | > 2000 µM | > 1000 µM | > 2000 µM | > 1000 µM | > 2000 µM | > 1000 µM | > 2000 µM | > 1000 µM | > 2000 µM | > 1000 µM | > 2000 µM | > 1000 µM | > 2000 µM | > 1000 µM | > 2000 µM | > 1000 µM | > 2000 µM |  | > 2000 µM
